Test results from patent publication US20110295343A1, “NEAR-INFRARED ELECTROMAGNETIC MODIFICATION OF CELLULAR STEADY-STATE MEMBRANE POTENTIALS” (priority 2008, published 2011).
Several values for one entry are separate records, joined by “and”; a condition that tells them apart may be missing. Identical values can stand only once.

Test system: MRSA (ATCC BAA-43)
Assay: MRSA/antimicrobial potentiation, CFU on TSB agar with and without antibiotic after laser (Example XXII, Experiments 1-4)
Format: cell-based, Staphylococcus aureus subsp. aureus
Conditions: for CFU (single plate count): 0.5 μg/ml penicillin G or 4 μg/ml erythromycin, plates 1-5; for AVG (CFU): mean of 5 plates; for Drug Effect: CFU with drug relative to without drug; for Laser Effect (+Drug): Exp vs Cont, both with drug; for Laser Effect (+Meth): both on 30 μg/ml methicillin; for Meth Effect: CFU with methicillin / without; for AVG: mean of plates; for CFU: replicate plates
Protocol: Four separate experiments have been performed.
Eight different laser dosages were used to treat a saline-suspension of logarithmically growing MRSA, labeled A1 to H1.
The treated and a control untreated suspension were diluted and plated in triplicate on trypic soy agar with or without 30 μg/ml methicillin After 24 hrs of growth at 37° C. colonies were counted.
CFU (colony forming units) were compared between the plates with and without methicillin for both control (untreated) and treated MRSA.
The treated and a control untreated suspension were diluted and plated in triplicate on trypic soy agar with or without 30 μg/mlmethicillin.
After 24 hrs of growth at 37° C. colonies were counted.
The treated and a control untreated suspension were diluted and plated in pentuplicate on trypic soy agar with or without 30 μg/ml methicillin.

[1] = Cont (no laser), Drug yes, groups A4/C4/E4
[2] = Cont (no laser), Drug yes, groups B4/D4/F4
[3] = Exp (laser 870+930 at 5 W 14 min, then 930 at 6 W 9 min), Drug yes, groups B4/D4/F4
[4] = Exp (laser 870+930 at 5.5 W 12 min, then 930 at 8 W 6 min), Drug yes, groups A4/C4/E4
[5] = Exp#1 A1 Cont (no laser), agar with 30 μg/ml methicillin
[6] = Exp#1 A1 Exp (laser treated), agar with 30 μg/ml methicillin
[7] = Exp#1 B1 Cont (no laser), agar with 30 μg/ml methicillin
[8] = Exp#1 B1 Exp (laser treated), agar with 30 μg/ml methicillin
[9] = Exp#1 C1 Cont (no laser), agar with 30 μg/ml methicillin
[10] = Exp#1 C1 Exp (laser treated), agar with 30 μg/ml methicillin
[11] = Exp#1 D1 Cont (no laser), agar with 30 μg/ml methicillin
[12] = Exp#1 D1 Exp (laser treated), agar with 30 μg/ml methicillin
[13] = Exp#1 E1 Cont (no laser), agar with 30 μg/ml methicillin
[14] = Exp#1 E1 Exp (laser treated), agar with 30 μg/ml methicillin
[15] = Exp#1 F1 Cont (no laser), agar with 30 μg/ml methicillin
[16] = Exp#1 F1 Exp (laser treated), agar with 30 μg/ml methicillin
[17] = Exp#1 G1 Cont (no laser), agar with 30 μg/ml methicillin
[18] = Exp#1 G1 Exp (laser treated), agar with 30 μg/ml methicillin
[19] = Exp#1 H1 Cont (no laser), agar with 30 μg/ml methicillin
[20] = Exp#1 H1 Exp (laser treated), agar with 30 μg/ml methicillin
[21] = Exp#2 A2 Cont (no laser), agar with 30 μg/ml methicillin
[22] = Exp#2 A2 Exp (laser treated), agar with 30 μg/ml methicillin
[23] = Exp#2 B2 Cont (no laser), agar with 30 μg/ml methicillin
[24] = Exp#2 B2 Exp (laser treated), agar with 30 μg/ml methicillin

In the case of `COc1cccc(OC)c1C(=O)N[C@@H]1C(=O)N2[C@@H]1SC(C)(C)[C@@H]2C(=O)O` [Methicillin], the CFU/ml [1] is reported as 2.59E+08 CFU/ml, the “CFU (single plate count)” value (Cont (no laser), Drug yes, groups A4/C4/E4, agar with 30 μg/ml methicillin, 24 hrs 37° C.) is reported as 97 CFU and 104 CFU and 82 CFU and 58 CFU and 90 CFU and the “AVG (CFU)” value [1] is reported as 86.2 CFU. For the same compound, the CFU/ml [2] was 3.98E+08 CFU/ml, the “CFU (single plate count)” value (Cont (no laser), Drug yes, groups B4/D4/F4, agar with 30 μg/ml methicillin, 24 hrs 37° C.) was 149 CFU and 101 CFU and 119 CFU and 153 CFU and 141 CFU and the “AVG (CFU)” value [2] was 132.6 CFU. The “Drug Effect” value (Cont (no laser), groups A4/C4/E4) was 0.94, the “Drug Effect” value (Cont (no laser), groups B4/D4/F4) was 1.26 and the CFU/ml [3] was 1.27E+08 CFU/ml. For the same compound, the “AVG (CFU)” value [3] was 42.4 CFU, the “Drug Effect” value (Exp (laser 870+930 at 5 W 14 min, then 930 at 6 W 9 min), groups B4/D4/F4) was 0.48 and the CFU/ml [4] was 1.09E+08 CFU/ml. The “AVG (CFU)” value [4] was 36.2 CFU, the “Drug Effect” value (Exp (laser 870+930 at 5.5 W 12 min, then 930 at 8 W 6 min), groups A4/C4/E4) was 0.43 and the “CFU (single plate count)” value (Exp (laser: 870 at 5 W and 930 at 5 W for 14 min followed by 930 at 6 W for 9 min), Drug yes, groups B4/D4/F4, 30 μg/ml methicillin) was 46 CFU and 34 CFU and 42 CFU and 44 CFU. The “CFU (single plate count)” value (Exp (laser: 870 at 5.5 W and 930 at 5.5 W for 12 min followed by 930 at 8 W for 6 min), Drug yes, groups A4/C4/E4, 30 μg/ml methicillin) was 37 CFU and 33 CFU and 36 CFU and 39 CFU, the “Laser Effect (+Drug)” value (laser 870+930 at 5 W 14 min, then 930 at 6 W 9 min, groups B4/D4/F4) was 0.32 and the “Laser Effect (+Drug)” value (laser 870+930 at 5.5 W 12 min, then 930 at 8 W 6 min, groups A4/C4/E4) was 0.42. The “Laser Effect (+Meth)” value (Exp#1 A1, laser Exp / Cont) was 0.7035, the “Meth Effect” value (Exp#1 A1 Cont (no laser)) was 0.6956 and the CFU/ml [5] was 4.25E+08 CFU/ml. For the same compound, the AVG [5] was 141.7 CFU, the CFU [5] was 207 CFU and 137 CFU and 81 CFU and the “Meth Effect” value (Exp#1 A1 Exp (laser treated)) was 0.7419. For the same compound, the CFU/ml [6] was 2.99E+08 CFU/ml, the AVG [6] was 99.7 CFU and the CFU [6] was 99 CFU and 96 CFU and 104 CFU. The “Laser Effect (+Meth)” value (Exp#1 B1, laser Exp / Cont) was 0.6693, the “Meth Effect” value (Exp#1 B1 Cont (no laser)) was 0.8991 and the CFU/ml [7] was 5.08E+08 CFU/ml. The AVG [7] was 169.3 CFU, the CFU [7] was 166 CFU and 192 CFU and 150 CFU and the “Meth Effect” value (Exp#1 B1 Exp (laser treated)) was 0.5657. The CFU/ml [8] was 3.40E+08 CFU/ml, the AVG [8] was 113.3 CFU and the CFU [8] was 102 CFU and 107 CFU and 131 CFU. The “Laser Effect (+Meth)” value (Exp#1 C1, laser Exp / Cont) was 0.3259, the “Meth Effect” value (Exp#1 C1 Cont (no laser)) was 1.267 and the CFU/ml [9] was 1.22E+09 CFU/ml. The AVG [9] was 406 CFU, the CFU [9] was 240 CFU and 466 CFU and 512 CFU and the “Meth Effect” value (Exp#1 C1 Exp (laser treated)) was 0.7192. The CFU/ml [10] was 3.97E+08 CFU/ml, the AVG [10] was 132.3 CFU and the CFU [10] was 95 CFU and 176 CFU and 126 CFU. The “Laser Effect (+Meth)” value (Exp#1 D1, laser Exp / Cont) was 1.0087, the “Meth Effect” value (Exp#1 D1 Cont (no laser)) was 0.837 and the CFU/ml [11] was 4.62E+08 CFU/ml. For the same compound, the AVG [11] was 154 CFU, the CFU [11] was 171 CFU and 141 CFU and 150 CFU and the “Meth Effect” value (Exp#1 D1 Exp (laser treated)) was 0.7627. The CFU/ml [12] was 4.66E+08 CFU/ml, the AVG [12] was 155.3 CFU and the CFU [12] was 164 CFU and 153 CFU and 149 CFU. The “Laser Effect (+Meth)” value (Exp#1 E1, laser Exp / Cont) was 1.632, the “Meth Effect” value (Exp#1 E1 Cont (no laser)) was 0.5828 and the CFU/ml [13] was 3.94E+08 CFU/ml. For the same compound, the AVG [13] was 131.3 CFU, the CFU [13] was 147 CFU and 121 CFU and 126 CFU and the “Meth Effect” value (Exp#1 E1 Exp (laser treated)) was 0.8297. For the same compound, the CFU/ml [14] was 6.43E+08 CFU/ml, the AVG [14] was 214.3 CFU and the CFU [14] was 181 CFU and 232 CFU and 230 CFU. For the same compound, the “Laser Effect (+Meth)” value (Exp#1 F1, laser Exp / Cont) was 0.9949, the “Meth Effect” value (Exp#1 F1 Cont (no laser)) was 0.8735 and the CFU/ml [15] was 5.94E+08 CFU/ml. The AVG [15] was 198 CFU, the CFU [15] was 197 CFU and 188 CFU and 209 CFU and the “Meth Effect” value (Exp#1 F1 Exp (laser treated)) was 0.8289. For the same compound, the CFU/ml [16] was 5.91E+08 CFU/ml, the AVG [16] was 197 CFU and the CFU [16] was 206 CFU (2×) and 179 CFU. The “Laser Effect (+Meth)” value (Exp#1 G1, laser Exp / Cont) was 0.9605, the “Meth Effect” value (Exp#1 G1 Cont (no laser)) was 0.9792 and the CFU/ml [17] was 6.58E+08 CFU/ml. For the same compound, the AVG [17] was 219.3 CFU, the CFU [17] was 246 CFU and 222 CFU and 190 CFU and the “Meth Effect” value (Exp#1 G1 Exp (laser treated)) was 0.8681. The CFU/ml [18] was 6.32E+08 CFU/ml, the AVG [18] was 210.7 CFU and the CFU [18] was 193 CFU and 237 CFU and 202 CFU. The “Laser Effect (+Meth)” value (Exp#1 H1, laser Exp / Cont) was 1.0381, the “Meth Effect” value (Exp#1 H1 Cont (no laser)) was 0.7533 and the CFU/ml [19] was 5.77E+08 CFU/ml. The AVG [19] was 192.3 CFU, the CFU [19] was 188 CFU and 206 CFU and 183 CFU and the “Meth Effect” value (Exp#1 H1 Exp (laser treated)) was 0.815. The CFU/ml [20] was 5.99E+08 CFU/ml, the AVG [20] was 199.7 CFU and the CFU [20] was 211 CFU and 212 CFU and 176 CFU. The “Laser Effect (+Meth)” value (Exp#2 A2, laser Exp / Cont) was 1.15, the “Meth Effect” value (Exp#2 A2 Cont (no laser)) was 0.72 and the CFU/ml [21] was 1.07E+08 CFU/ml. The AVG [21] was 35.7 CFU, the CFU [21] was 35 CFU and 47 CFU and 25 CFU and the “Meth Effect” value (Exp#2 A2 Exp (laser treated)) was 0.87. The CFU/ml [22] was 1.23E+08 CFU/ml, the AVG [22] was 41 CFU and the CFU [22] was 39 CFU and 48 CFU and 36 CFU. The “Laser Effect (+Meth)” value (Exp#2 B2, laser Exp / Cont) was 0.54, the “Meth Effect” value (Exp#2 B2 Cont (no laser)) was 0.7 and the CFU/ml [23] was 1.49E+08 CFU/ml. For the same compound, the AVG [23] was 49.7 CFU, the CFU [23] was 47 CFU and 56 CFU and 46 CFU and the “Meth Effect” value (Exp#2 B2 Exp (laser treated)) was 0.77. The CFU/ml [24] was 8.00E+07 CFU/ml, the AVG [24] was 26.7 CFU and the CFU [24] was 27 CFU and 28 CFU and 25 CFU. The “Laser Effect (+Meth)” value (Exp#2 C2, laser Exp / Cont) was 0.23 and the “Meth Effect” value (Exp#2 C2 Cont (no laser)) was 0.99.
